The target in series [1] is T1, Aromatase (Rattus norvegicus, UniProt P22443).
T1 sequence (P22443 whole entry): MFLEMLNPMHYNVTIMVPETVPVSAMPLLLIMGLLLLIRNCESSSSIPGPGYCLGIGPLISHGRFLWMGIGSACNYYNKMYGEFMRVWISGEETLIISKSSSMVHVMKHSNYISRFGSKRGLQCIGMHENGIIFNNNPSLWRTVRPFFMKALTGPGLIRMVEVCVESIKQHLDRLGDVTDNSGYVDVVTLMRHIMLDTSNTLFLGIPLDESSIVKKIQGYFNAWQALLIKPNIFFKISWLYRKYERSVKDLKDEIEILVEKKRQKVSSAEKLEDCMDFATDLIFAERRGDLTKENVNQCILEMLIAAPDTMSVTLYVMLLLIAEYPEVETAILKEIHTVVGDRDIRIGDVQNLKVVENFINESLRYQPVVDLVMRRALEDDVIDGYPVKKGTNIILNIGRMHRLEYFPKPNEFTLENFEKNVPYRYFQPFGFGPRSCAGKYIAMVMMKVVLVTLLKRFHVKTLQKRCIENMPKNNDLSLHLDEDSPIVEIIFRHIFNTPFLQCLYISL

Series [2] has as its target T2, Cholesterol side-chain cleavage enzyme, mitochondrial (Homo sapiens, UniProt P05108).
T2 sequence (P05108 whole entry): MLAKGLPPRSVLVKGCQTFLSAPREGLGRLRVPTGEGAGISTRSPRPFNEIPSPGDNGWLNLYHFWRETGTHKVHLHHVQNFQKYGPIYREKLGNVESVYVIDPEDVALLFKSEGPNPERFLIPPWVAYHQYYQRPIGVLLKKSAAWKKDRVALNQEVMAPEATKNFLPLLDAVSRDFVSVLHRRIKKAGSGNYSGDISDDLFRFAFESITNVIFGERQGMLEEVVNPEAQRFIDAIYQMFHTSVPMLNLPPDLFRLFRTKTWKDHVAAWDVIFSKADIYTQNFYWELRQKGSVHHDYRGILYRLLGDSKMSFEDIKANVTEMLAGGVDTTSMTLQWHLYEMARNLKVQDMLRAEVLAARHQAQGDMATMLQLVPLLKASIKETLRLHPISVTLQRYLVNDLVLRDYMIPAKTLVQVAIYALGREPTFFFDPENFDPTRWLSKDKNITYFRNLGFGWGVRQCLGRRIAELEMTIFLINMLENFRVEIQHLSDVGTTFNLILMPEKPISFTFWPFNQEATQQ
The format is functional, Cricetulus griseus.

From ChEMBL document CHEMBL1125250 (J Med Chem, 1991) come the findings set out here.

Regarding `CCOC(=O)c1ccc(C2CCCc3cncn32)cc1.Cl` (centres undefined), the EDmin in series [1] was greater than 10 µM/kg.

The compound `Brc1ccc(C2CCCc3cncn32)cc1.Cl` (centres undefined) displayed an EDmin in series [1] of 0.5 µM/kg.

`OCc1ccc(C2CCCc3cncn32)cc1` (centres undefined) returned an EDmin in series [1] of 0.5 µM/kg.

Regarding `CCC1(c2ccc(N)cc2)CCC(=O)NC1=O` (centres undefined) [AMINOGLUTETHIMIDE], the IC50 in series [2] came out at 80 µM.
